Experimental data reported in PubChem BioAssay AID489040 (Sanford-Burnham Center for Chemical Genomics, 2010).
pEC50: −log10 of the molar value. The source made the active and inactive calls.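 The calls were made as follows: active = mean half-maximal activating concentration from the dose-response fit at or below a set limit; inactive = the rest.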

Target: CHO-XBP1 luciferase reporter, IRE1-XBP1 UPR activation
Assay: activators of IRE1-XBP1 UPR arm, dose response, counter-screen for apoptotic UPR arm activators, CHO-XBP1 cells, luminescence (AID 489040);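 also: reporter read after six hours of compound exposure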

Structure (SMILES)	pEC50	EC50
Oc1ccc(/C=N/N2CCN(C3c4ccccc4-c4ccccc43)CC2)cc1O	4.73	–
COc1ccc(-n2nc(C#N)c(Cl)cc2=O)cc1	–	> 80 µM (inactive)
O=C(/C=C\c1ccccc1OC(=O)c1ccccc1F)c1cc2ccccc2o1	4.86	–
C[C@@H]1CN([C@H](C)CO)C(=O)c2cc(NC(=O)Nc3ccc(C(F)(F)F)cc3)ccc2O[C@H]1CN(C)Cc1ccc(Cl)c(Cl)c1	–	> 80 µM (inactive)
O=C(NC1CCCC1)C(c1ccc(Cl)cc1)N(Cc1ccc(F)cc1)C(=O)CCl (stereo not drawn)	–	> 80 µM (inactive)
CN1C(=O)NC(=O)/C(=C\C=C\c2ccccc2[N+](=O)[O-])C1=O	–	> 80 µM (inactive)
O=C1NC(=O)N(c2ccccc2)C(=O)/C1=C\C=C\c1ccccc1	–	> 80 µM (inactive)
Cc1ccc(/C=C2\CCC3=C2OC(N)=C(C#N)C3c2ccc(C)cc2)cc1 (stereo not drawn)	–	> 80 µM (inactive)
Cc1cccc(N=Nc2ccc(O)c3ncccc23)c1	–	> 80 µM (inactive)
COc1ccc(OC)c(/C=C/C(=O)N2C(=O)c3cccc(N)c3C2=O)c1	–	> 80 µM (inactive)
Cc1ccccc1S(=O)(=O)NC1OC(=O)C(Cl)=C1Cl (stereo not drawn)	–	> 80 µM (inactive)
CCCCOc1ccc(N2C(=O)CC(N(O)c3ccccc3)C2=O)cc1 (stereo not drawn)	–	> 80 µM (inactive)
Cc1ccc(C(=O)Cn2c(C(=O)/C=C/c3ccccc3)nc3ccccc32)cc1	4.74	–
Cc1sc(NC(=O)c2cc(-c3ccc(Cl)cc3)nc3ccccc23)c(C(N)=O)c1C	4.82	–
Cc1cnc(NC(=O)c2cc(S(=O)(=O)N(C)C)ccc2N2CCCC2)s1	5.48	–
Oc1cc(-c2cccnc2)cc2cccnc12	–	inactive
Oc1ccc(/C=N/Nc2ncnc3c2ncn3Cc2ccccc2)cc1O	–	inactive
O=C(NCc1ccccc1Cl)c1cccc2c1C(=O)c1ccc(-c3ccc(OC(F)(F)F)cc3)cc1S2(=O)=O	–	inactive
O=C(CSc1nc2ccc(Nc3nc(N4CCOCC4)nc(N4CCOCC4)n3)cc2s1)Nc1ccccc1F	5.25	–
C/C(=N\NC(=O)c1ccc(F)cc1)c1ccccn1	–	> 80 µM (inactive)
COC(=O)c1cc(=O)n(CCc2ccc(OC)c(OC)c2)c(=Nc2ccc(F)c(Cl)c2)s1	–	> 80 µM (inactive)

Structure (SMILES)	pEC50	EC50
CC1CCN(Cc2c(C(=O)N/N=C/c3ccc(C(C)(C)C)cc3)nnn2-c2nonc2N)CC1	–	> 80 µM (inactive)
O=C(N/N=C/c1ccccn1)c1cc(-c2ccc(Br)cc2)nc2ccccc12	–	> 80 µM (inactive)
Cc1ccc(-c2csc3ncnc(Sc4nnc(CN5CCCCCC5=O)o4)c23)cc1	–	> 80 µM (inactive)
COc1ccccc1N1CCN(/N=C/c2ccc(O)c(O)c2)CC1	–	> 80 µM (inactive)
CC(=O)Oc1ccc(OC(C)=O)c(SCCCCCN2CCOCC2)c1	–	> 80 µM (inactive)
COc1ccc(C(c2c(C)[nH]n(C(N)=S)c2=O)C(C#N)C#N)cc1 (stereo not drawn)	–	> 80 µM (inactive)
Cc1c(C#N)c(NC(=O)CCl)n(Cc2ccc(F)cc2)c1C	–	> 80 µM (inactive)
Cc1cc(NC(=O)c2cc(-c3ccccn3)nc3ccc(Br)cc23)no1	–	> 80 µM (inactive)
CC(C)N=c1scc(-c2ccco2)n1/N=C/c1ccc(O)c(O)c1	5.35	–
COC(=O)Oc1ccc(/C=C/C(=O)OC(C)C)cc1OC(=O)OC	–	> 80 µM (inactive)
Cc1cc(C(=O)CCl)c(C)n1CC1COc2ccccc2O1 (stereo not drawn)	–	> 80 µM (inactive)
Oc1ccc(-c2csc(Nc3cccc4ccccc34)n2)cc1O	–	> 80 µM (inactive)
Cc1cc(C)nc(SCc2ccc(C(=O)N/N=C/c3cccc(O)c3O)cc2)n1	–	> 80 µM (inactive)
Oc1c(C(Nc2ccccn2)c2ccccn2)ccc2cccnc12 (stereo not drawn)	–	> 80 µM (inactive)
Cc1cc(O)c(-c2cc(O)c(C)cc2O)cc1O	–	> 80 µM (inactive)
O=C(/C=C/Sc1ccc(C(F)(F)F)cn1)c1ccccc1	–	> 80 µM (inactive)
COc1ccc(/C=C/c2ccc3cccc(O)c3n2)c(OC)c1OC	–	> 80 µM (inactive)
COC(=O)C1=C(C)N(c2ccc(C)c(C)c2)/C(=C/c2cccs2)C1=O	–	> 80 µM (inactive)
COc1ccc(O)c(/C=N/Nc2nc(Nc3ccccc3)nc(-n3nc(C)cc3C)n2)c1	–	> 80 µM (inactive)
C/C(=C\c1ccc(N(C)C)cc1)[N+](=O)[O-]	–	> 80 µM (inactive)
CCOC(=O)c1c(-c2ccc(-c3ccccc3)cc2)csc1NC(=O)CNCCN(C)C	–	> 80 µM (inactive)

Structure (SMILES)	pEC50	EC50
N#CC(C#N)=C1C=CC=CN1/C(=C\c1ccccc1)C(=O)c1cccs1	–	> 80 µM (inactive)
COc1ccc(/C=C/C(=O)c2ccc(C(=O)/C=C/c3ccc(OC)c(OC)c3)cc2)cc1OC	–	> 80 µM (inactive)
COc1ccccc1-c1cc(C(F)(F)F)nc(S(=O)(=O)CCCC(=O)NCc2ccc(F)cc2)n1	–	> 80 µM (inactive)
O=C(COc1ccc(/C=N/NC(=O)c2cc3ccccc3o2)cc1Br)Nc1ccccc1	5.33	–
c1ccc(-c2nc(N3CCCCCC3)c3ccccc3n2)nc1	–	> 80 µM (inactive)
CC(C)N1CSC(=S)N(Cc2ccccc2)C1	–	> 80 µM (inactive)
O=C(Nc1nc(-c2ccccn2)cs1)c1ccc(Br)s1	–	inactive
COc1cc(/C=C/C(=O)c2ccc3c(c2)OCCO3)cc(Br)c1OCC(=O)N(C)C	–	> 80 µM (inactive)
CCCN1Cc2cccc(C(=O)Nc3ccc(-c4nc5ccccc5[nH]4)cc3)c2C1=O	–	> 80 µM (inactive)
Cc1cc(N2CCN(c3ccc([N+](=O)[O-])c4cccnc34)CC2)c2ccccc2n1	–	> 80 µM (inactive)
Cc1cc(C(=O)CCl)c(C)n1CCc1ccc(Cl)cc1	–	> 80 µM (inactive)
CCOC(=O)c1c(C)oc2c1c(C(c1ccccc1)N1CCOCC1)c(O)c1ccccc12 (stereo not drawn)	–	> 80 µM (inactive)
CN(C)S(=O)(=O)c1cccc(NC(=O)CSc2cccc3cccnc23)c1	–	> 80 µM (inactive)
CCc1ccccc1NC(=S)N=Nc1c(O)n(C)c2ccc(S(=O)(=O)N3CCOCC3)cc12	–	> 80 µM (inactive)
Oc1c(C(c2ccccn2)N2CCC(Cc3ccccc3)CC2)cc(Cl)c2cccnc12 (stereo not drawn)	–	> 80 µM (inactive)
Cc1cc(C)n(-c2nc(NC(C)(C)C)nc(NC(C)(C)C)n2)n1	–	> 80 µM (inactive)
C=CCn1c(O)c(N=NC(=S)Nc2ccccc2F)c2cc(S(=O)(=O)N3CCOCC3)ccc21	–	> 80 µM (inactive)
C/C(=N\NC(=O)c1cccc(Br)c1)c1ccccn1	–	> 80 µM (inactive)
CC1(C)CCSC(/C=C/c2ccccc2)=N1	–	> 80 µM (inactive)
COc1ccc(C(=O)Nc2ccccc2C(=O)N/N=C/c2ccccn2)cc1OC	–	> 80 µM (inactive)
C/C(=N\NC(=O)c1ccccc1OCc1ccc(F)cc1)c1ccccn1	–	> 80 µM (inactive)
